Assays:
[1] = test system: patients with pulmonary arterial hypertension; assay: Phase 4 open-label 16-week study: safety and tolerability, prostanoid-related adverse events; assay type: in vivo, human; settings: for most bothersome AE: during the phase of the labelled form; for participants who received acetaminophen for prostacyclin-related headache / participants who received loperamide for prostacyclin-related diarrhea / participants who received ondansetron for prostacyclin-related nausea/vomiting: per-protocol population (n=29), while on the labelled form
Protocol: Safety and tolerability were assessed at each scheduled visit and in between visits as needed throughout the duration of the study. Tolerability measures of interest included incidence of all adverse events (AEs) and prostanoid-related AEs including headache, diarrhea, nausea, vomiting, flushing, jaw pain and extremity pain. […] Prostanoid-related events captured by the survey were only recorded if the event was unusual with respect to intensity, frequency, or duration compared to symptoms in the patient's medical history. Patient compliance with taking oral treprostinil was assessed by performing study drug accountability at each scheduled study visit. The primary endpoint and all efficacy endpoints were analyzed using the per-protocol population, which included all patients without major protocol deviations unless otherwise specified. The exact (Clopper-Pearson) 95% confidence interval was calculated for the primary endpoint. […] For continuous variables, descriptive statistics are reported as median (interquartile range, IQR or range) or mean (±standard deviation, SD). For categorical variables, descriptive statistics include frequency and percentage of patients in each category. Changes from baseline to Week 16 for continuous variables were analyzed using Wilcoxon signed rank test. The change in FC from baseline to Week 16 was analyzed using McNemar's test. The p-values from these tests were derived for descriptive purposes and not part of a formal hypothesis testing framework.

[2] = test system: patients with pulmonary arterial hypertension; assay: Phase 4 open-label 16-week study: clinical parameters, risk stratification, patient-reported outcomes; assay type: in vivo, human
Source text: The secondary endpoints of this study included measurements in: changes in prostanoid adverse events (AEs), echocardiograms, change in 6-minute walk distance (6MWD), change in Borg dyspnea score, change in World Health Organization (WHO) functional class (FC), change in serum N-terminal pro-brain natriuretic peptide (NT-proBNP) levels, impact of pulmonary hypertension on a person's life (health-related quality of life), and treatment satisfaction. Specifically, this study sought to measure the percentage of subjects that improved in each of the following individual four clinical parameters at Week 16 (6MWD, NT-proBNP, WHO FC, right atrial area) to a lower risk stratum, as defined by the 2015 ESC/ERS guidelines (Gailè et al., DOI: 10.1183/13993003.01032-2015), compared to baseline measurements. An additional endpoint was determining the percentage of subjects that meet each of the following four individual clinical parameters at Week 16 in the low risk category, as defined by 2015 ESC/ERS guidelines: 6MWD>440 meters, […].
(§1) Based on the 2015 ESC/ERS Guidelines, specific hemodynamic inclusion criteria included a mean pulmonary arterial pressure ≥25 mmHg, pulmonary artery wedge pressure or left ventricular end-diastolic pressure ≤15 mmHg, and pulmonary vascular resistance >3 Wood units, in the absence of unrepaired congenital heart disease. Other key inclusion criteria were World Health Organization functional class (FC) II or III, 6-minute walk distance (6MWD)≥250 m, and a REVEAL 2.0 risk score ≤9 (Benza et al. 2021, DOI: https://doi.org/10.1016/j.chest.2020.08.2069). Patients could be receiving up to two oral PAH background therapies if taken at a stable dose for ≥30 days prior to baseline. As this study focused on the addition of a new therapy rather than the replacement of one therapy by another therapy, participants were eligible regardless of the number of pulmonary arterial hypertension background therapies (0, 1, or 2) they were receiving at baseline. […] Baseline assessments were collected up to 14 days prior to initiation of parenteral treprostinil, and included hemodynamics via echocardiogram and RHC, FC, N-terminal-pro brain natriuretic peptide (NT-proBNP), 6MWD, and medication history. Of note, historical RHC data could be used for baseline assessments if performed up to 180 days prior to initiating parenteral treprostinil. Echocardiograms were uploaded and stored in a central repository and evaluated by an independent central reader in accordance with the American Society of Echocardiography Guidelines (Bossone et al., DOI: 10.1016/j.echo.2012.10.009).
(§2) Once patients reached at least 20 ng/kg/min and were deemed suitable for transition based on physician assessment, they were transitioned at Week 2,4, or 8 to oral treprostinil via cross-titration in an inpatient or outpatient setting over 1-21 days. All participants still receiving parenteral treprostinil at Week 8 began transitioning to oral treprostinil regardless of their parenteral treprostinil dose unless deemed unsuitable for transition by their clinician. Before transition, 6MWD, WHO FC, NT-proBNP, and echocardiography parameters were assessed.
The primary endpoint was the percentage of patients who achieved an oral treprostinil TDD of at least 12 mg (0.171 mg/kg for patients <70 kg) at Week 16. Secondary endpoints included change from baseline to Week 16 in risk strata and clinical parameters, where baseline values were collected within 14 days prior to parenteral treprostinil initiation. Changes in risk strata for FC, NT-proBNP, 6MWD, and right atrial (RA) area were assessed using the 2015 ESC/ERS Guidelines, which categorizes risk for each determinant as low, intermediate, and high (Galiè et al., 2016). Clinical parameters of interest included FC, NT-proBNP, 6MWD, echocardiography parameters, REVEAL Lite 2 score (Benza et al., 2021), and Borg Dyspnea Score (Borg, 1982, DOI: https://doi.org/10.1249/00005768-198205000-00012). […]

[3] = test system: patients with pulmonary arterial hypertension; assay: Phase 4 open-label 16-week study: echocardiography parameters; assay type: in vivo, human
Source text: as §1, §2
The primary endpoint was the percentage of patients who achieved an oral treprostinil TDD of at least 12 mg (0.171 mg/kg for patients <70 kg) at Week 16. Secondary endpoints included change from baseline to Week 16 in risk strata and clinical parameters, where baseline values were collected within 14 days prior to parenteral treprostinil initiation. Changes in risk strata for FC, NT-proBNP, 6MWD, and right atrial (RA) area were assessed using the 2015 ESC/ERS Guidelines, which categorizes risk for each determinant as low, intermediate, and high (Galiè et al., 2016). Clinical parameters of interest included FC, NT-proBNP, 6MWD, echocardiography parameters, REVEAL Lite 2 score (Benza et al., 2021), and Borg Dyspnea Score (Borg, 1982, DOI: https://doi.org/10.1249/00005768-198205000-00012). The REVEAL Lite 2 score includes clinical parameters to determine the risk status (low, intermediate, and high) for pulmonary arterial hypertension. The Borg Dyspnea Score ranges from 0 to 10, where 0 indicates no dyspnea and 10 indicates very, very heavy (almost maximal) dyspnea. Patient-reported outcomes were assessed using the emPHasis-10 quality of life questionnaire (Yorke et al., 2014, DOI: 10.1183/09031936.00127113) and the Pulmonary Arterial Hypertension Symptom Scale (PAHSS) (Matura et al., 2015, DOI: https://doi.org/10.1016/j.apnr.2014.04.001). The Treatment Satisfaction Questionnaire for Medication (TSQM) (Atkinson et al., 2004, DOI: https://doi.org/10.1186/1477-7525-2-12) was used to measure patient satisfaction with their medication over the last two to three weeks; higher scores indicate greater satisfaction. EmPHasis-10 scores can range from 0 to 50, where lower scores indicate better quality of life. […]

[4] = test system: Pulmonary hypertension patients; settings: cited from earlier work
[5] = test system: Pulmonary arterial hypertension patients; settings: cited from earlier work
[6] = Oral Treprostinil Phase (After Transition), n = 32
[7] = 2015 ESC/ERS risk strata, baseline to Week 16
[8] = Parenteral Treprostinil Phase (Before Transition), n = 35
[9] = transition visit, per-protocol population

SMILES: CCCCC[C@H](O)CC[C@@H]1[C@H]2Cc3cccc(OCC(=O)O)c3C[C@H]2C[C@H]1O [oral treprostinil, treprostinil]
- Diarrhea, patients with AE [1, 6]: 17 (53) n (%)
- Extremity pain, patients with AE [1, 6]: 11 (34) n (%)
- Flushing, patients with AE [1, 6]: 17 (53) n (%)
- Headache, patients with AE [1, 6]: 19 (59) n (%)
- Jaw pain, patients with AE [1, 6]: 16 (50) n (%)
- Nausea, patients with AE [1, 6]: 21 (66) n (%)
- Vomiting, patients with AE [1, 6]: 9 (28) n (%)
- adverse events headache, nausea, and vomiting ([1]; after transition from Remodulin to Orenitram): tended to improve
- use of all concomitant medications ([1]; after transitioning from parenteral to oral treprostinil): decreased
- bothersomeness of extremity pain, jaw pain and headache ([1]; after transitioning to oral treprostinil, scale 1 bothers me a lot to 4 not at all bothersome): not at all bothersome
- most bothersome AE [1]: diarrhea and nausea
- participants who received acetaminophen for prostacyclin-related headache [1]: 38%
- participants who received loperamide for prostacyclin-related diarrhea [1]: 38%
- participants who received ondansetron for prostacyclin-related nausea/vomiting [1]: 48%
- tolerability ([1]; three times daily): well tolerated
- percentage of patients who shifted to a lower risk stratum for 6MWD [2, 7]: 15%
- percentage of patients who shifted to a lower risk stratum for FC [2, 7]: 39%
- percentage of patients who shifted to a lower risk stratum for NT-proBNP [2, 7]: 39%
- percentage of patients who shifted to a lower risk stratum for RA area [2, 7]: 35%
- 6MWD, median ([2]; Week 16): 395 m
- Borg Dyspnea Score, median ([2]; Week 16): 3
- NT-proBNP, median ([2]; Week 16): 212 ng/L
- REVEAL Lite 2 score, median ([2]; Week 16): 3.5
- percentage of patients classified as FC I ([2]; Week 16 (0% at baseline)): 46%
- Borg Dyspnea Score, median change from baseline ([2]; baseline to Week 16): −1
- NT-proBNP, median change from baseline ([2]; baseline to Week 16): -134 ng/L
- PAHSS domains ([2]; baseline to Week 16): improvements were seen in most domains
- REVEAL Lite 2 score, median change from baseline ([2]; baseline to Week 16): −1
- emPHasis- scores (quality of life), median change from baseline ([2]; baseline to Week 16): −3
- patients improving in WHO FC ([2]; baseline to Week 16): 68%
- patients worsening in WHO FC ([2]; baseline to Week 16): one
- Cardiac output, median ([3]; Week 16): 4.9 L/min
- Heart rate, median ([3]; Week 16): 76 bpm
- LV diameter, median ([3]; Week 16): 44.9 mm
- LV eccentricity, diast., median ([3]; Week 16): 1.0
- LV eccentricity, syst., median ([3]; Week 16): 1.2
- LVOT integral, median ([3]; Week 16): 19.5 cm
- LVOT, median ([3]; Week 16): 19.6 mm
- PVAT, median ([3]; Week 16): 89.9 ms
- RA area, median ([3]; Week 16): 17.5 cm^2
- RV MPI, median ([3]; Week 16): 0.4
- RV diameter, median ([3]; Week 16): 24.8 mm
- RV wall strain, median ([3]; Week 16): −19.2%
- RV/LV ratio, diastole, median ([3]; Week 16): 0.6
- TAPSE, median ([3]; Week 16): 19.9 mm
- Cardiac output, median Change from Baseline ([3]; baseline to Week 16): +0.5 L/min
- Heart rate, median Change from Baseline ([3]; baseline to Week 16): +2 bpm
- LV diameter, median Change from Baseline ([3]; baseline to Week 16): +3.5 mm
- LV eccentricity, diast., median Change from Baseline ([3]; baseline to Week 16): 0.0
- LV eccentricity, syst., median Change from Baseline ([3]; baseline to Week 16): +0.1
- LVOT integral, median Change from Baseline ([3]; baseline to Week 16): +0.9 cm
- LVOT, median Change from Baseline ([3]; baseline to Week 16): +0.4 mm
- PVAT, median Change from Baseline ([3]; baseline to Week 16): +4.4 ms
- RA area, median Change from Baseline ([3]; baseline to Week 16): −2.9 cm^2
- RV MPI, median Change from Baseline ([3]; baseline to Week 16): −0.1
- RV diameter, median Change from Baseline ([3]; baseline to Week 16): −2.6 mm
- RV wall strain, median Change from Baseline ([3]; baseline to Week 16): +1.3%
- RV/LV ratio, diastole, median Change from Baseline ([3]; baseline to Week 16): −0.1
- TAPSE, median Change from Baseline ([3]; baseline to Week 16): +1.2 mm
- outcomes, including 6-minute walk distances, in patients who attained higher total daily doses [4]: better outcomes

SMILES: CCCCC[C@H](O)CC[C@@H]1[C@H]2Cc3cccc(OCC(=O)O)c3C[C@H]2C[C@H]1O [parenteral treprostinil, treprostinil]
- Diarrhea, patients with AE [1, 8]: 18 (51) n (%)
- Extremity pain, patients with AE [1, 8]: 12 (34) n (%)
- Flushing, patients with AE [1, 8]: 10 (29) n (%)
- Headache, patients with AE [1, 8]: 28 (80) n (%)
- Jaw pain, patients with AE [1, 8]: 16 (46) n (%)
- Nausea, patients with AE [1, 8]: 24 (69) n (%)
- Vomiting, patients with AE [1, 8]: 13 (37) n (%)
- most bothersome AE [1]: extremity pain, followed by jaw pain, headache, and diarrhea
- patients reporting at least one treatment-emergent AE ([1]; patients who initiated parenteral treprostinil): All patients
- participants who received acetaminophen for prostacyclin-related headache [1]: 55%
- participants who received loperamide for prostacyclin-related diarrhea [1]: 34%
- participants who received ondansetron for prostacyclin-related nausea/vomiting [1]: 69%
- patients who improved WHO FC ([2]; transition visit, 29 patients): 76%
- patients who maintained WHO FC ([2]; transition visit, 29 patients): 21%
- patients who worsened WHO FC ([2]; transition visit, 29 patients): 3%
- 6MWD, median (IQR) [2, 9]: 377 (318, 453) m
- NT-proBNP, median (IQR) [2, 9]: 186 (110, 724) ng/L
- TAPSE, median (IQR) [3, 9]: 18.1 (14.8, 20.9) mm
- right atrial area, median (IQR) [3, 9]: 19.3 (16.0, 26.7) cm2

SMILES: O=C(O)COC[C@H]1CC[C@H](COC(=O)N(c2ccccc2)c2ccc(Cl)cc2)CC1 [ralinepag]
- outcomes, including pulmonary vascular resistance and 6-minute walk distances, versus placebo [5]: better outcomes

SMILES: CCCCC[C@H](O)CC[C@@H]1[C@H]2Cc3cccc(OCC(=O)O)c3C[C@H]2C[C@H]1O [treprostinil]
- Diarrhea, patients with AE ([1]; Transition Phase, n = 33): 17 (52) n (%)
- Extremity pain, patients with AE ([1]; Transition Phase, n = 33): 10 (30) n (%)
- Flushing, patients with AE ([1]; Transition Phase, n = 33): 10 (30) n (%)
- Headache, patients with AE ([1]; Transition Phase, n = 33): 19 (58) n (%)
- Jaw pain, patients with AE ([1]; Transition Phase, n = 33): 15 (46) n (%)
- Nausea, patients with AE ([1]; Transition Phase, n = 33): 21 (64) n (%)
- Vomiting, patients with AE ([1]; Transition Phase, n = 33): 5 (15) n (%)
